Tests used:
[1] = test system: mushroom tyrosinase; assay: Tyrosinase inhibitory activity (DOPA chrome formation); format: biochemical; conditions: DL-DOPA substrate, pH 6.8, 37 °C, 10 min, 475 nm
Experimental: The inhibitory activity of tyrosinase, which is involved in the key steps of melanin synthesis, was measured using a colorimetric method modified from Masamoto et al. by detecting the formation of DOPA chrome as a result of the enzyme’s action. As a substrate, a mixture containing 0.2 mL of 5 mM DL-DOPA solution, 0.2 mL of 0.1 M phosphate buffer (pH 6.8), and 0.5 mL of sample solution was prepared. To this mixture, 0.1 mL of mushroom tyrosinase (Sigma Co., 250 unit/mL) was added and incubated at 37 °C for 10 min. After incubation, the absorbance was measured at a wavelength of 475 nm to calculate the tyrosinase inhibitory activity.

[2] = test system: HaCaT cells; assay: ROS generation (DCFH-DA) in H2O2-treated HaCaT cells; format: cell-based, human; conditions: DP 50, 100, 200 μM; H2O2 500 μM, 24 h; DCFH-DA 25 μM, 30 min; n = 3
Experimental: (§1) The cell line used in the experiment, the HaCaT cell line, a human keratinocyte, was purchased from the Korea Cell Line Bank (KCLB, Seoul, Republic of Korea). HaCaT cells were cultured in a DMEM medium supplemented with 10% FBS and 1% penicillin–streptomycin. The cells were subcultured every 2 to 3 days in an incubator maintained at 37 °C and 5% CO2.
HaCaT cells were seeded at 1 × 10^4 cells per well in a 96-well black plate and cultured for 24 h. The cultured cells were treated with DP at concentrations of 50, 100, and 200 μM and then exposed to 500 μM H2O2 for 24 h to induce ROS generation. After H2O2 treatment, the cells were stained with 25 μM dichlorodihydro-fluorescein diacetate (DCFH-DA) for 30 min. The fluorescence intensity corresponding to intracellular ROS production was measured using a fluorescent spectrophotometer at an excitation wavelength of 485 nm and an emission wavelength of 530 nm. The results were expressed as ROS production (%) relative to the fluorescence measurement value of the untreated control, which was set to 100.

[3] = test system: HaCaT cells; assay: Cell viability (MTT) of H2O2-treated HaCaT cells; format: cell-based, human; conditions: DP 50, 100, 200 μM with H2O2 500 μM, 24 h, n = 3
Experimental: as §1
To assess the cytotoxicity of DP and H2O2, cells (1 × 10^4 in a 96-well plate) were cultured at 37 °C and 5% CO2 for 24 h. The cultured cells were then treated with DP and H2O2. After 24 h of treatment, 10 μL of MTT (5 mg/mL) solution was added, and the cells were incubated for 4 h. Following this, the supernatant was removed, and 100 μL of DMSO was added to each well. The absorbance was measured at 550 nm using an ELISA reader.

[4] = test system: tyrosinase; conditions: previous research; cited from earlier work
Description: (§2) This study aims to evaluate the antioxidant and skin-whitening effects of this novel decapeptide (DP) through in vitro and in silico analyses and to establish its potential as a new skin-whitening agent.

[5] = previous research; cited from earlier work
Description: as §2

[6] = test system: B16F10 melanoma cells; assay: Melanin content and morphology in α-MSH-induced B16F10 melanoma cells; format: cell-based, mouse; conditions: for Melanin content: α-MSH (200 nM) 24 h, α-MSH treated group 152.36%, 405 nm
Experimental: (§3) B16F10 melanoma cells were obtained from the KCLB and cultured in DMEM medium supplemented with 10% FBS (Gibco BRL, Grand Island, NY, USA) and 1% penicillin. The cells were incubated in a humidified incubator at 37 °C and 5% CO2.
To measure melanin production in B16F10 cells, cells were seeded in 6-well plates at a density of 5 × 10^4 cells/well. After 24 h, the medium was replaced with fresh medium containing 2% FBS, 200 nM α-MSH, and various concentrations of DP. […] After incubation, the cells were washed with PBS, harvested by centrifugation, and the melanin content was visually inspected. The harvested cells were dissolved in 400 μL of 0.2 N NaOH solution and incubated at 60 °C for 1 h. The absorbance was measured at 405 nm using a microplate reader.

[7] = test system: MC1R mRNA; assay: RT-PCR of MC1R mRNA in α-MSH-stimulated B16F10 cells; format: cell-based, mouse; conditions: 0.1, 1, and 10 μM; α-MSH 200 nM; normalized to GAPDH
Experimental: as §3
(§4) Total RNA was extracted using the High Pure RNA Isolation Kit (Invitrogen Co., Waltham, MA, USA) according to the manufacturer’s instructions and quantified using a NanoDrop (Thermo Scientific, Waltham, MA, USA). For the reverse transcription reaction, 1 μg of isolated RNA and 1 μL of oligo DT (100 pM) were combined with DEPC to a total volume of 11 μL, followed by the reverse transcription reaction using the RT Premix Kit (Bioneer Co., Daejeon, Republic of Korea) as per the manufacturer’s protocol. PCR for MITF, Tyrosinase, and MC1R genes was conducted using 2 μL of the cDNA products obtained from the reverse transcription reaction, with the PCR Premix Kit (Bioneer Co.) according to the manufacturer’s instructions. The cDNA products amplified by reverse transcription and polymerase chain reaction were analyzed by electrophoresis on 2.0% agarose gels containing ethidium bromide.

[8] = Ferric reducing antioxidant power (FRAP); format: biochemical; conditions: FRAP reagent pH 3.6, 5 min, 37 °C, 593 nm, n = 3
Experimental: FRAP was measured using the method adapted from Benzie and Strain [46]. The FRAP reagent was prepared by mixing a 300 mM sodium acetate buffer (pH 3.6), a 10 mM 2,4,6-tripyridyl-s-triazine (TPTZ) solution dissolved in 40 mM HCl, and a 20 mM FeCl3 solution in a 10:1:1 ratio just before the experiment. A 10 μL sample of each concentration was mixed with 200 μL of FRAP reagent, incubated for 5 min at 37 °C, and then the absorbance was measured at 593 nm using a Microplate Spectrophotometer (xMarkTM, BIO-RAD, Hercules, CA, USA). The FRAP value of the sample was determined by applying the absorbance values to a standard calibration curve prepared with 0–5 mM FeSO4·H2O, and the results were expressed as FeSO4 equivalent mM/μM.

[9] = test system: MITF mRNA; assay: RT-PCR of MITF mRNA in α-MSH-stimulated B16F10 cells; format: cell-based, mouse; conditions: 0.1, 1, and 10 μM; α-MSH 200 nM; normalized to GAPDH
Experimental: as §3, §4

[10] = ABTS radical scavenging activity; format: biochemical; conditions: n = 3
Experimental: The ABTS radical scavenging activity of C. notate head hydrolysate was determined by an adaptation of the ABTS radical cation decolorization assay of Re et al.. A 7 mM ABTS solution and a 2.45 mM potassium persulfate (Sigma Co., Fukushima, Japan) solution were mixed (v/v) to a final concentration and allowed to stand in the dark at room temperature (RT) for 24 h. Afterward, distilled water was added to dilute the solution until the absorbance at 732 nm reached 0.70 (±0.02). Then, 990 μL of this diluted ABTS solution was mixed with 10 μL of the sample solution and incubated at RT for 1 min. The absorbance was measured at 732 nm (Figure 1).

[11] = test system: B16F10 melanoma cells; assay: Cytotoxicity (MTT) in B16F10 melanoma cells; format: cell-based, mouse; conditions: 12.5, 50, and 100 μM, 24 h
Experimental: as §3
To determine the cytotoxicity of DP and establish the concentration range for the experiment, an MTT assay was conducted. Cells were seeded in 96-well plates at a density of 1.0 × 10^4 cells/well. After 24 h, once the cells were fully attached, the medium was replaced with fresh medium containing 200 nM α-MSH and various concentrations of DP. After another 24 h of incubation, an MTT assay was performed.

[12] = test system: tyrosinase mRNA; assay: RT-PCR of tyrosinase mRNA in α-MSH-stimulated B16F10 cells; format: cell-based, mouse; conditions: 0.1, 1, and 10 μM; α-MSH 200 nM; normalized to GAPDH
Experimental: as §3, §4

Sequence: KGYSSYICDK [DP]
- Tyrosinase inhibitory activity ([1]; 62.5 μM): 7.05%
- Tyrosinase inhibitory activity ([1]; 125 μM): 19.62%
- Tyrosinase inhibitory activity ([1]; 250 μM): 26.29%
- Tyrosinase inhibitory activity ([1]; 500 μM): 62.67%
- Tyrosinase inhibitory activity ([1]; 1000 μM): 84.38%
- ROS levels in H2O2-treated HaCaT cells [2]: significantly reduced
- Cell viability of H2O2-treated HaCaT cells [3]: enhanced cell viability in a dose-dependent manner
- Tyrosinase inhibitory activity [4]: tyrosinase inhibitory activities
- Free radical scavenging activity [5]: free radical scavenging
- Melanin content ([6]; 0.1 μM): 120.32%
- Melanin content ([6]; 1 μM): 105.24%
- Melanin content ([6]; 10 μM): 83.21%
- Melanin formation, morphological observation ([6]; starting from 0.1 μM, α-MSH 200 nM, 200× magnification): melanin formation was inhibited starting from the 0.1 μM concentration
- MC1R mRNA level [7]: dose-dependent and significant decrease
- FRAP activity vs Vitamin C ([8]; 1000 μM, p < 0.05): significant activity at 1000 μM, comparable to Vitamin C
- FRAP activity, concentration dependence ([8]; FeSO4 equivalents): dose-dependent FRAP activity
- MITF mRNA level [9]: dose-dependent and significant decrease
- ABTS radical scavenging, concentration dependence ([10]; 732 nm): concentration-dependent ABTS radical scavenging activity
- ABTS radical scavenging ([10]; concentrations above 20 μM, 732 nm): over 90%
- ABTS radical scavenging vs Vit. C ([10]; concentrations above 20 μM, p < 0.05): significantly outperforming Vit. C
- Cytotoxicity in B16F10 melanoma cells [11]: No cytotoxicity was observed
- Tyrosinase mRNA level [12]: dose-dependent and significant decrease
